Patent US12714678B2, “Peptides and methods of treating sepsis, atherosclerosis, thrombosis, stroke, heart attack and inflammation” (THE BOARD OF TRUSTEES OF THE UNIVERSITY OF ILLINOIS, priority 2019, dated 2026)
Where a SMILES comes first, the peptide text is derived from it. Where no end group is shown, it is not given here. The star is where a group is joined. Myristoyl = CCCCCCCCCCCCCC(=O)*

Experiments:
C57/BL6 mice = experiment: Reverse passive Arthus (rpA) reaction; assay type: in vivo, mouse; details: 5 μmol/kg, vs scrambled peptide
Protocol: C57/BL6 mice were anesthetized by i.p. injection of a mixture of ketamine and xylazine (100 mg/kg and 16 mg/kg mouse weight), and the medial surface of the mouse back was shaved. Shaved mice received intradermal injections of rabbit anti-bovine serum albumin (BSA) antibody (6 μg/μL, MP Biomedicals, OH) in 25 μL of 0.9% NaCl, followed by i.v. injection of BSA (75 μg/g mouse weight) as well as the peptide inhibitors (5 μmol/kg mouse weight) in 100 μL sterile 0.9% NaCl. In addition, control sites received 25 μL of PBS in parallel. Four hours after injection, mice were euthanized and inflamed or control skin samples at each injection site were collected. The hemoglobin (Hb) contents in the skin samples were quantified by hemoglobin colorimetric assay kit (Cayman Chemical, Ann Arbor, MI).

C57BL/6 mice [1] = experiment: Tail bleeding time; details: M3mP6 HLPN 10 μmol/kg; aspirin 4.3 mg/kg; clopidogrel 4 mg/kg; ticagrelor 3 mg/kg; cangrelor 30 μg/kg; MB2mP6
Protocol: M3mP6 was administered via retro-orbital injection 15 minutes prior to procedure.
Tail bleeding time was performed as previously described (21, 39). Eight- to 10-week-old C57BL/6 mice were anesthetized with isoflurane. After cutting 0.5-cm-long segment of the distal tip of the tail, their tails were immersed in 0.15 M NaCl immediately at 37° C. Tail bleeding time was defined as the time between cutting tail and stable cessation of bleeding (no rebleeding within 60s). […] If bleeding persisted at 15 minute time point, bleeding was stopped by application of pressure. Data were analyzed using Mann-Whitney test to compare medians between groups.
Tail bleeding time was performed as previously described (16, 29). Eight- to 10-week-old C57BL/6 mice weighing 20-25 g were anesthetized with isoflurane. After cutting a 0.5-cm-long segment off the distal tip of the tail, their tails were immersed in 0.15 M NaCl immediately at 37° C. Tail bleeding time was defined as the time between cutting the tail and stable cessation of bleeding (no re-bleeding within 60s). […] If bleeding persisted at 15 minutes, bleeding was stopped by application of pressure. Data were analyzed using the Mann-Whitney test to compare medians between groups.

C57BL/6 mice [2] = experiment: Cecal ligation and puncture (CLP) sepsis model; assay type: in vivo, mouse; details: bolus 2.5 μmol/kg then 1.25 μmol/kg/hour i.v.
Protocol: CLP sepsis was induced as described previously (32, 33). In brief, mice (14- to 16-week-old with equal number of each gender) were anesthetized by intraperitoneal administration of ketamine (100 mg/kg body weight) and xylazine (8 mg/kg). After a midline laparotomy, the cecum was ligated at about 1 cm from the end and then subjected to a double “through and through” perforation with an 18-gauge needle. Sham-operated mice underwent the same procedure except for ligation and puncture of the cecum. After the procedure, an analgesic (buprenorphine, 0.1 mg/kg, s.c.) was given immediately and every 12 h thereafter for 3 d. At these time points, fluid resuscitation (prewarmed 0.9% NaCl, 0.05 ml/g body weight) was given through subcutaneous injection to prevent fluid loss and help the recovery of body temperature. […] The survival of mice was observed every 6 h for 8 days and analyzed by the Log Rank test (using Prism GraphPad software (ver. 5.0), San Diego, CA, USA). […]
Twenty-four hours after CLP, mouse blood was collected and added to an EDTA-rinsed microcentrifuge tube or citrate buffer. […] The kidney function markers BUN, creatinine and cystatin C and mouse liver function marker ALT were detected using corresponding kits according to the manufacturers' instructions. […]

Compound | inflammation-induced hemorrhage (C57/BL6 mice) | tail bleeding time vs normal control (C57BL/6 mice [1]) | survival rate at 192 h (8 days), infusion immediately after CLP (C57BL/6 mice [2]) [%]
CCCCCCCCCCCCCC(=O)N[C@@H](Cc1ccccc1)C(=O)N[C@@H](CCC(=O)O)C(=O)N[C@@H](CCCCN)C(=O)N[C@@H](CCC(=O)O)C(=O)N[C@@H](CCCCN)C(=O)N[C@@H](CC(C)C)C(=O)O [MB2mP6, Myr-FEKEKL] (Myristoyl-FEKEKL-OH; C-terminus assumed) | neither affected | neither affected | –
Myr-EFKKLE (Myristoyl-EFKKLE) [control peptide, scrambled control for MB2mP6 in micellar nanoparticle formulation (CLP study)] | – | – | 26
